Like-named read-outs stand apart in the source and are kept apart here.
Key:
Format in all cases: cell-based
S. aureus ATCC 29213 [1] = assay: MIC by NCCLS microdilution, antibacterial agents with and without EPI; settings: for MIC: Staphylococcus aureus
Method in brief: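 Efflux pump inhibitors were combined at fixed concentrations with antibiotics from several classes and tested against Staphylococcus aureus ATCC 29213 to compare minimum inhibitory concentrations with and without inhibitor. The inhibitor level was tied to its minimal effective concentration for ethidium bromide, a general efflux pump substrate. All assays contained a final concentration of 1% DMSO.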

E. faecalis ATCC 29212 = assay: Minimal effective concentration (MEC) of EPI for EtBr; settings: lowest amount of EPI which produces the maximum effect on the MIC of ethidium bromide
Protocol: (§1) The MEC was determined as the minimal concentration of EPI that produced the maximal reduction in substrate MIC.
(§2) The minimum effective concentration (MEC) for inhibition of EtBr efflux was determined in S. aureus, E. faecalis and S. pneumoniae for A-106 and C-9; reserpine was used as a comparator (Table 1).

S. aureus ATCC 29213 [2] = assay: as above; settings: S. aureus ATCC 29213; lowest amount of EPI which produces the maximum effect on the MIC of ethidium bromide
Protocol: as §1, §2

[3] = tested on: S. aureus SA-1199B (NorA overproducing); assay: MIC of fluoroquinolones with and without EPI
Method in brief: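 Fluoroquinolone MICs determined with and without efflux pump inhibitor in S. aureus SA-1199B (NorA overproducer with A116E GrlA mutation) and SA-K2068 (SA-8325-4 with a non-NorA multidrug efflux pump overproducing mutation). All assays contained 1% DMSO final.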

[4] = tested on: S. aureus clinical isolates; assay: MIC90 studies: fluoroquinolone susceptibility of clinical isolate panel with EPI; settings: EPI at 50 μg/ml
Method in brief: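 Fluoroquinolone MICs with efflux pump inhibitor measured against panels of resistant clinical isolates by NCCLS protocols. MIC90 taken across each panel. Oxacillin and vancomycin MICs run alongside to flag methicillin-resistant S. aureus and vancomycin-resistant E. faecalis isolates.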

S. aureus ATCC 29213 [5] = assay: MIC by NCCLS microdilution, antibacterial agents with and without EPI; settings: at 100 μg/ml
[6] = S. aureus ATCC 29213, EPI at 4X the MEC for EtBr, VX-710 at 100 μg/ml
[7] = S. aureus SA-1199B, EPI at 4X the MEC for EtBr, VX-710 at 100 μg/ml
[8] = SA-1199B, EPIs at 4 times MEC for EtBr, A-106 at 100 μg/ml

SMILES: COc1cc(C(=O)C(=O)N(C)[C@@H](Cc2ccc(Cl)cc2)C(=O)N(Cc2ccccc2)C(CCc2ccncc2)CCc2ccncc2)cc(OC)c1OC [C-9, (S)—N-Benzyl-2-(methyl-(2-oxo-2-(3,4,5-trimethoxyphenyl)acetyl)amino)-3-(4-chloro-phenyl)-N-(3-pyridin-4-yl-1-(2-pyridin-4-yl-ethyl)propyl)propionamide]
- MIC of gatifloxacin with EPI (S. aureus ATCC 29213 [1]; S. aureus ATCC 29213 (Table 4)): 0.125 µg/mL
- MIC of ciprofloxacin with EPI (S. aureus ATCC 29213 [1]; [6]): 0.125 µg/mL
- MIC of gatifloxacin with EPI (S. aureus ATCC 29213 [1]; [6]): 0.063 µg/mL
- MIC of gentamicin with EPI (S. aureus ATCC 29213 [1]; [6]): 0.125 µg/mL
- MIC of levofloxacin with EPI (S. aureus ATCC 29213 [1]; [6]): 0.125 µg/mL
- MIC of norfloxacin with EPI (S. aureus ATCC 29213 [1]; [6]): 0.5 µg/mL
- Fold-reduction in EtBr MIC (S. aureus ATCC 29213 [1]; S. aureus ATCC 29213, EPIs used at the MEC, except VX-710 at 100 μg/ml): 4
- reduction of the MIC of EtBr (S. aureus ATCC 29213 [1]; S. aureus wild type, EPI up to 100 μg/ml, data not shown): 30 fold
- MIC (S. aureus ATCC 29213 [1]; ATCC29213, read-out: MIC of EPI, S. aureus ATCC 29213, EPI alone): > 100 µg/mL
- MIC (S. aureus ATCC 29213 [1]; ATCC29213, read-out: MIC of EtBr with EPI, S. aureus ATCC 29213, EPI at 4X the MEC for EtBr, VX-710 at 100 μg/ml): 0.8 µg/mL
- MIC (S. aureus ATCC 29213 [1]; ATCC29213, read-out: MIC of EtBr with EPI, S. aureus ATCC 29213, EPIs used at the MEC, except VX-710 at 100 μg/ml): 1.6 µg/mL
- Fold-reduction in MIC (S. aureus ATCC 29213 [1]; gatifloxacin, S. aureus ATCC 29213): 1
- effect of EPI on the MIC of gatifloxacin (S. aureus ATCC 29213 [1]; wild type strain ATCC 29213): unaffected
- MEC of EPI (E. faecalis ATCC 29212): 6.3 µg/mL
- MEC of EPI (S. aureus ATCC 29213 [2]): 1.6 µg/mL
- MIC of gatifloxacin with EPI ([3]; S. aureus SA-1199B (NorA overproducer) (Table 4)): 0.25 µg/mL
- MIC of ciprofloxacin with EPI [3, 7]: 2 µg/mL
- MIC of gatifloxacin with EPI [3, 7]: 0.25 µg/mL
- MIC of gentamicin with EPI [3, 7]: 0.125 µg/mL
- MIC of levofloxacin with EPI [3, 7]: 1 µg/mL
- MIC of norfloxacin with EPI [3, 7]: 8 µg/mL
- reduction of MIC of ciprofloxacin [3, 8]: 8 fold
- reduction of MIC of gatifloxacin [3, 8]: 4 fold
- reduction of MIC of levofloxacin [3, 8]: 2 fold
- reduction of MIC of norfloxacin [3, 8]: 32 fold
- MIC ([3]; Staphylococcus aureus, read-out: MIC of EtBr with EPI): 3.1 µg/mL
- Fold-reduction in MIC ([3]; gatifloxacin, S. aureus SA-1199B (NorA overproducer)): 2
- decrease in MIC of ciprofloxacin and norfloxacin ([4]; S. aureus isolates): no significant (>2-fold) decrease in MIC
- Ciprofloxacin MIC with EPI ([4]; S. aureus clinical isolate 1): 1 µg/mL
- Norfloxacin MIC with EPI ([4]; S. aureus clinical isolate 1): 8 µg/mL
- Ciprofloxacin MIC with EPI ([4]; S. aureus clinical isolate 2): 0.5 µg/mL
- Norfloxacin MIC with EPI ([4]; S. aureus clinical isolate 2): 1 µg/mL
- Ciprofloxacin MIC with EPI ([4]; S. aureus clinical isolate 3): 1 µg/mL
- Norfloxacin MIC with EPI ([4]; S. aureus clinical isolate 3): 4 µg/mL
- Ciprofloxacin MIC with EPI ([4]; S. aureus clinical isolate 4): 64 µg/mL
- Norfloxacin MIC with EPI ([4]; S. aureus clinical isolate 4): 128 µg/mL
- Ciprofloxacin MIC with EPI ([4]; S. aureus clinical isolate 5): 1 µg/mL
- Norfloxacin MIC with EPI ([4]; S. aureus clinical isolate 5): 2 µg/mL
- Ciprofloxacin MIC with EPI ([4]; S. aureus clinical isolate 6): 32 µg/mL
- Norfloxacin MIC with EPI ([4]; S. aureus clinical isolate 6): 128 µg/mL
- Ciprofloxacin MIC with EPI ([4]; S. aureus clinical isolate 7): 0.5 µg/mL
- Norfloxacin MIC with EPI ([4]; S. aureus clinical isolate 7): 2 µg/mL
- Ciprofloxacin MIC with EPI ([4]; S. aureus clinical isolate 8): 1 µg/mL
- Norfloxacin MIC with EPI ([4]; S. aureus clinical isolate 8): 4 µg/mL
- Ciprofloxacin MIC with EPI ([4]; S. aureus clinical isolate 9): 1 µg/mL
- Norfloxacin MIC with EPI ([4]; S. aureus clinical isolate 9): 4 µg/mL
- Ciprofloxacin MIC with EPI ([4]; S. aureus clinical isolate 10): 16 µg/mL
- Norfloxacin MIC with EPI ([4]; S. aureus clinical isolate 10): 64 µg/mL
- Ciprofloxacin MIC with EPI ([4]; S. aureus clinical isolate 11): 32 µg/mL
- Norfloxacin MIC with EPI ([4]; S. aureus clinical isolate 11): 64 µg/mL
- Ciprofloxacin MIC with EPI ([4]; S. aureus clinical isolate 12): 0.25 µg/mL
- Norfloxacin MIC with EPI ([4]; S. aureus clinical isolate 12): 1 µg/mL
- Ciprofloxacin MIC with EPI ([4]; S. aureus clinical isolate 13): 64 µg/mL
- Norfloxacin MIC with EPI ([4]; S. aureus clinical isolate 13): 128 µg/mL
- Ciprofloxacin MIC with EPI ([4]; S. aureus clinical isolate 14): 64 µg/mL
- Norfloxacin MIC with EPI ([4]; S. aureus clinical isolate 14): 128 µg/mL
- Ciprofloxacin MIC with EPI ([4]; S. aureus clinical isolate 15): >64 µg/mL
- Norfloxacin MIC with EPI ([4]; S. aureus clinical isolate 15): 256 µg/mL
- intrinsic antibacterial activity of EPI (S. aureus ATCC 29213 [5]): no intrinsic antibacterial activity
